Test results taken from PMC4452589, “An evaluation of the brain distribution of [^11C]GSK1034702, a muscarinic-1 (M1) positive allosteric modulator in the living human brain using positron emission tomography” (EJNMMI Research, 2014).
Like-named read-outs stand apart in the source and are kept apart here.

Key:
[1] = [11C]GSK1034702 PET brain distribution and kinetics in healthy male humans; assay type: in vivo; conditions: human
Experimental: An open-label PET study (GSK study number 110771) was conducted to assess the transport of [^11C]GSK1034702 across the BBB and its distribution in the living human brain. Four healthy males aged between 35 and 55 years old, with body mass index (BMI) between 19.0 and 29.0 kg/m^2, and the absence of past or present neurological, medical or psychiatric illnesses and concomitant medications were enrolled. Clinical status was assessed by history, physical examination, routine blood tests, urine toxicology and electrocardiogram. All subjects provided written informed consent. The study was approved by the Edinburgh Independent Ethics Committee for Medical Research and permission to administer radioisotopes was obtained from the Administration of Radioactive Substances Advisory Committee of the UK. Subjects were recruited by and monitored by the Hammersmith Medicines Research (HMR) clinic. All scanning procedures were performed at the GlaxoSmithKline Clinical Imaging Center, Hammersmith Hospital, London.
Each subject underwent a single study day, during which PET imaging was performed. T1-weighted structural MRI scan was performed for all subjects to provide neuroanatomical information. A tracer dose of [^11C]GSK1034702 (mass <50 μg) was administered as an IV bolus immediately before each PET scan. During the scanning day, each subject received a baseline [^11C]GSK1034702 scan, followed by a single 5-mg oral dose (p.o.) of […] and a subsequent [^11C]GSK1034702 scan approximately 4 h post-dose. Subjects returned to the clinic for a follow-up visit 7 to 14 days following the oral dose of GSK1034702.
Dynamic PET data were acquired using a Siemens Biograph 6 Truepoint with TrueV PET-CT (Siemens Healthcare, Malvern, PA, USA) in three-dimensional (3D) mode. A computed tomography (CT) scan was acquired for attenuation correction of PET data prior to administration of the radiotracer. A cannula was inserted under local anaesthesia into the radial artery, contralateral to the tracer injection site, and used to collect arterial blood samples to estimate the time course of radioactivity and metabolism of GSK1034702. The radiotracer was administered as an IV bolus over 20 s, and dynamic PET data were acquired for 90 min.
Arterial blood radioactivity was measured continuously for the first 15 min after [^11C]GSK1034702 injection, using a continuous sampling system (ABSS Allogg, Mariefred, Sweden). In addition, 12 serial discrete blood samples were obtained (at 5, 10, 15, 20, 25, 30, 40, 50, 60, 70, 80 and 90 min post injection), to determine whole blood and plasma activity. Seven samples (at 5, 10, 20, 30, 50, 70 and 90 min) were further processed by HPLC to measure the fraction of plasma activity representing unmetabolised GSK1034702. For all human studies, the non-protein-bound fraction of [^11C]GSK1034702 in arterial plasma (fP) was assessed by ultrafiltration for the blood sample taken at the beginning of the scan.
Emission PET data were binned into 26 frames (durations: 8 × 15 s, 3 × 60 s, 5 × 2 min, […], 5 × 10 min) and reconstructed using Fourier re-binning and a two-dimensional (2D) filtered back projection algorithm with a ramp filter. Image data were then smoothed with a Gaussian filter (5 mm FWHM). The PET reconstruction process included corrections for scatter, randoms and attenuation. Dynamic PET data were corrected for motion via frame-to-frame image registration and aligned with the structural T1 MRI image using SPM5 (Wellcome Trust Centre for Neuroimaging, http://www.fil.ion.ucl.ac.uk/spm) with a mutual information cost function.
The CIC Neuroanatomical Atlas was non-linearly deformed into the individual's space to obtain a personalised anatomical parcellation of ROIs. These ROIs were applied to the dynamic emission data, and regional TACs were obtained for the whole brain, frontal cortex, occipital cortex, striatum, thalamus, hippocampus and cerebellum. […]

[2] = plasma free fraction by ultrafiltration, baboon arterial plasma; assay type: in vitro ADME; conditions: baboon (Papio anubis), mean ± SD, read-out: free fraction in plasma (fP)
Experimental: For all non-human primate studies, the non-protein-bound fraction of [^11C]GSK1034702 in arterial plasma (fP) was quantified using the following methodology: triplicate 200 μL aliquots of plasma collected before injection were mixed with [^11C]GSK1034702, pipetted into ultrafiltration units (Centrifree; Amicon, Danvers, MA, USA) and centrifuged at room temperature (20 min at 4,000 rpm). At the end of centrifugation, plasma and ultrafiltrate activities were counted and fP was calculated as the ratio of ultrafiltrate to total activity concentrations.

[3] = male, whole brain, intravenous, two-tissue compartmental model, read-out: whole brain VT

Structure (SMILES): Cc1cc(F)c2[nH]c(=O)n(C3CCN(C4CCOCC4)CC3)c2c1 [GSK1034702]
- Kp ([1]; male, cortex, intravenous, read-out: VT measured in the human cortex): 4.9
- Kp [1, 3]: 4.9
- fraction unbound at 20 min [2]: 0.54

Structure (SMILES): [11CH3]c1cc(F)c2[nH]c(=O)n(C3CCN(C4CCOCC4)CC3)c2c1 [[^11C]GSK1034702]
- K 1 ([1]; Cerebellum, Subject 1 Scan 1 (baseline)): 0.23 mL.cm^−3.min^−1
- K 1 ([1]; Cerebellum, Subject 2 Scan 1 (baseline)): 0.19 mL.cm^−3.min^−1
- K 1 ([1]; Cerebellum, Subject 2 Scan 2 (post dose, 5 mg oral)): 0.15 mL.cm^−3.min^−1
- K 1 ([1]; Cerebellum, Subject 4 Scan 1 (baseline)): 0.19 mL.cm^−3.min^−1
- K 1 ([1]; Cerebellum, Subject 4 Scan 2 (post dose, 5 mg oral)): 0.19 mL.cm^−3.min^−1
- K 1 ([1]; Cortex, Subject 1 Scan 1 (baseline)): 0.19 mL.cm^−3.min^−1
- K 1 ([1]; Cortex, Subject 2 Scan 1 (baseline)): 0.16 mL.cm^−3.min^−1
- K 1 ([1]; Cortex, Subject 2 Scan 2 (post dose, 5 mg oral)): 0.12 mL.cm^−3.min^−1
- K 1 ([1]; Cortex, Subject 4 Scan 1 (baseline)): 0.16 mL.cm^−3.min^−1
- K 1 ([1]; Cortex, Subject 4 Scan 2 (post dose, 5 mg oral)): 0.17 mL.cm^−3.min^−1
- K 1 ([1]; MTL, Subject 1 Scan 1 (baseline)): 0.33 mL.cm^−3.min^−1
- K 1 ([1]; MTL, Subject 2 Scan 1 (baseline)): 0.19 mL.cm^−3.min^−1
- K 1 ([1]; MTL, Subject 2 Scan 2 (post dose, 5 mg oral)): 0.16 mL.cm^−3.min^−1
- K 1 ([1]; MTL, Subject 4 Scan 1 (baseline)): 0.24 mL.cm^−3.min^−1
- K 1 ([1]; MTL, Subject 4 Scan 2 (post dose, 5 mg oral)): 0.25 mL.cm^−3.min^−1
- K 1 ([1]; Striatum, Subject 1 Scan 1 (baseline)): 0.20 mL.cm^−3.min^−1
- K 1 ([1]; Striatum, Subject 2 Scan 1 (baseline)): 0.16 mL.cm^−3.min^−1
- K 1 ([1]; Striatum, Subject 2 Scan 2 (post dose, 5 mg oral)): 0.13 mL.cm^−3.min^−1
- K 1 ([1]; Striatum, Subject 4 Scan 1 (baseline)): 0.18 mL.cm^−3.min^−1
- K 1 ([1]; Striatum, Subject 4 Scan 2 (post dose, 5 mg oral)): 0.18 mL.cm^−3.min^−1
- K 1 ([1]; Thalamus, Subject 1 Scan 1 (baseline)): 0.29 mL.cm^−3.min^−1
- K 1 ([1]; Thalamus, Subject 2 Scan 1 (baseline)): 0.19 mL.cm^−3.min^−1
- K 1 ([1]; Thalamus, Subject 2 Scan 2 (post dose, 5 mg oral)): 0.15 mL.cm^−3.min^−1
- K 1 ([1]; Thalamus, Subject 4 Scan 1 (baseline)): 0.20 mL.cm^−3.min^−1
- K 1 ([1]; Thalamus, Subject 4 Scan 2 (post dose, 5 mg oral)): 0.20 mL.cm^−3.min^−1
- K 1 ([1]; White matter, Subject 1 Scan 1 (baseline)): 0.13 mL.cm^−3.min^−1
- K 1 ([1]; White matter, Subject 2 Scan 1 (baseline)): 0.10 mL.cm^−3.min^−1
- K 1 ([1]; White matter, Subject 2 Scan 2 (post dose, 5 mg oral)): 0.08 mL.cm^−3.min^−1
- K 1 ([1]; White matter, Subject 4 Scan 1 (baseline)): 0.11 mL.cm^−3.min^−1
- K 1 ([1]; White matter, Subject 4 Scan 2 (post dose, 5 mg oral)): 0.11 mL.cm^−3.min^−1
- change in MTL VT following oral dose of 5 mg GSK1034702 ([1]; both subjects with pre- and post-dose data): small (but non-significant) reduction
- Kp ([1]; brain cortex, intravenous, Cortex, Subject 1 Scan 1 (baseline), read-out: V T): 5.37
- Kp ([1]; brain cortex, intravenous, Cortex, Subject 2 Scan 1 (baseline), read-out: V T): 5
- Kp ([1]; brain cortex, intravenous, Cortex, Subject 4 Scan 1 (baseline), read-out: V T): 5.57
- Kp ([1]; brain cortex, po, Cortex, Subject 2 Scan 2 (post dose, 5 mg oral), read-out: V T): 4.03
- Kp ([1]; brain cortex, po, Cortex, Subject 4 Scan 2 (post dose, 5 mg oral), read-out: V T): 4.81
- Kp ([1]; brain striatum, intravenous, Striatum, Subject 1 Scan 1 (baseline), read-out: V T): 5.59
- Kp ([1]; brain striatum, intravenous, Striatum, Subject 2 Scan 1 (baseline), read-out: V T): 5.05
- Kp ([1]; brain striatum, intravenous, Striatum, Subject 4 Scan 1 (baseline), read-out: V T): 5.83
- Kp ([1]; brain striatum, po, Striatum, Subject 2 Scan 2 (post dose, 5 mg oral), read-out: V T): 5.29
- Kp ([1]; brain striatum, po, Striatum, Subject 4 Scan 2 (post dose, 5 mg oral), read-out: V T): 4.93
- Kp ([1]; brain white matter, intravenous, White matter, Subject 4 Scan 1 (baseline), read-out: V T): 5.04
- Kp ([1]; cerebellum, intravenous, Cerebellum, Subject 1 Scan 1 (baseline), read-out: V T): 5.33
- Kp ([1]; cerebellum, intravenous, Cerebellum, Subject 2 Scan 1 (baseline), read-out: V T): 4.75
- Kp ([1]; cerebellum, intravenous, Cerebellum, Subject 4 Scan 1 (baseline), read-out: V T): 5.17
- Kp ([1]; cerebellum, po, Cerebellum, Subject 2 Scan 2 (post dose, 5 mg oral), read-out: V T): 3.69
- Kp ([1]; cerebellum, po, Cerebellum, Subject 4 Scan 2 (post dose, 5 mg oral), read-out: V T): 4.56
- Kp ([1]; medial temporal lobe (MTL), intravenous, MTL, Subject 1 Scan 1 (baseline), read-out: V T): 7.81
- Kp ([1]; medial temporal lobe (MTL), intravenous, MTL, Subject 2 Scan 1 (baseline), read-out: V T): 13.3
- Kp ([1]; medial temporal lobe (MTL), intravenous, MTL, Subject 4 Scan 1 (baseline), read-out: V T): 7.11
- Kp ([1]; medial temporal lobe (MTL), po, MTL, Subject 2 Scan 2 (post dose, 5 mg oral), read-out: V T): 8.3
- Kp ([1]; medial temporal lobe (MTL), po, MTL, Subject 4 Scan 2 (post dose, 5 mg oral), read-out: V T): 6.91
- change in K1 following oral dose of 5 mg GSK1034702 ([1]; post-dose versus baseline scan): no significant change
- change in VT following oral dose of 5 mg GSK1034702 ([1]; post-dose versus baseline scan): no significant change
- Kp ([1]; thalamus, intravenous, Thalamus, Subject 1 Scan 1 (baseline), read-out: V T): 6.29
- Kp ([1]; thalamus, intravenous, Thalamus, Subject 2 Scan 1 (baseline), read-out: V T): 5.44
- Kp ([1]; thalamus, intravenous, Thalamus, Subject 4 Scan 1 (baseline), read-out: V T): 5.74
- Kp ([1]; thalamus, po, Thalamus, Subject 2 Scan 2 (post dose, 5 mg oral), read-out: V T): 4.39
- Kp ([1]; thalamus, po, Thalamus, Subject 4 Scan 2 (post dose, 5 mg oral), read-out: V T): 5.11
- Kp ([1]; white matter, intravenous, White matter, Subject 1 Scan 1 (baseline), read-out: V T): 4.63
- Kp ([1]; white matter, intravenous, White matter, Subject 2 Scan 1 (baseline), read-out: V T): 4.38
- Kp ([1]; white matter, po, White matter, Subject 2 Scan 2 (post dose, 5 mg oral), read-out: V T): 4.01
- Kp ([1]; white matter, po, White matter, Subject 4 Scan 2 (post dose, 5 mg oral), read-out: V T): 4.49
- Kp ([1]; male, medial temporal lobe (MTL), intravenous, range over scans, read-out: VT in the MTL): 7 to 13
- Kp ([1]; male, white matter, intravenous, range over scans, read-out: VT in the white matter): 4 to 5
- Kp [1, 3]: 4.9
- fraction unbound at 20 min [2]: 0.54 ± 0.21
